The structures appear in SMILES notation. Read-outs that look alike come from different tables or passages of the source.

One assay concerns the target T1, PRMT1 (Homo sapiens, UniProt Q99873).
T1 construct: made in house; host or cells: High Five insect cells (baculovirus)
Put plainly: PRMT1 Biochemical Assay. An excerpt:
Peptide representative of human histone H4 residues 36-50 was synthesized with an N-terminal linker-affinity tag motif and a C-terminal amide cap by 21st Century Biochemicals. The peptide was purified by high-performance liquid chromatography (HPLC) to greater than 95% purity and confirmed by liquid chromatography mass spectrometry (LC-MS). The sequence was Biot-Ahx-[…]-amide (SEQ ID NO.:1).
Full-length human PRMT1 isoform 1 (NM_001536.5) transcript clone was amplified from an HEK 293 cDNA library, incorporating flanking 5′ sequence encoding a FLAG tag ([…]) (SEQ ID NO.:2) fused directly to Met 1 of PRMT1. The amplified gene was subcloned into pFastBacI (Life Technologies) modified to encode an N-terminal GST tag and a TEV cleavage sequence
GST-tagged PRMT1 was eluted with 50 mM Tris, 2 mM glutathione, pH 7.8, dialysed in buffer A and concentrated to 1 mg/mL. The purity of recovered protein was 73%. Reference: Wasilko, D. J. and S. E. Lee: “TIPS: titerless infected-cells preservation and scale-up” Bioprocess J., 5 (2006), pp. 29-32.
General Procedure for PRMT1 Enzyme Assays on Peptide Substrates.
The assays were all performed in a buffer consisting of 20 mM Bicine (pH=7.6), 1 mM TCEP, 0.005% BSG, and 0.002% Tween 20, prepared on the day of use. Compounds in 100% DMSO (1 ul) were spotted into a polypropylene 384-well V-bottom plates (Greiner) using a Platemate Plus outfitted with a 384-channel head (Thermo Scientific). DMSO (1 ul) was added to Columns 11, 12, 23, 24, rows A-H for the maximum signal control and 1 ul of SAH, a known product and inhibitor of PRMT1, was added to columns 11, 12, 23, 24, rows I-P for the minimum signal control. A cocktail (40 ul) containing the PRMT1 enzyme was added by Multidrop Combi (Thermo-Fisher). The compounds were allowed to incubate with PRMT1 for 30 min at room temperature, then a cocktail (10 ul) containing SAM and peptide was added to initiate the reaction (final volume=51 ul). The final concentrations of the components were as follows: PRMT1 was 0.5 nM, ^3H-SAM was 200 nM, non-radiolabeled SAM was 1.5 uM, peptide was 20 nM, SAH in the minimum signal control wells was 1 mM, and the DMSO concentration was 2%. The assays were stopped by the addition of non-radiolabeled SAM (10 ul) to a final concentration of 300 uM, which dilutes the ^3H-SAM to a level where its incorporation into the peptide substrate is no longer detectable. 50 ul of the reaction in the 384-well polypropylene plate was then transferred to a 384-well Flashplate and the biotinylated peptides were allowed to bind to the streptavidin surface for at least 1 hour before being washed once with 0.1% Tween20 in a Biotek ELx405 plate washer. The plates were then read in a PerkinElmer TopCount plate reader to measure the quantity of ^3H-labeled peptide bound to the Flashplate surface, measured as disintegrations per minute (dpm) or alternatively, referred to as counts per minute (cpm).
(§1) Where dpm=disintegrations per minute, cmpd=signal in assay well, and min and max are the respective minimum and maximum signal controls.
(§2) Where top and bottom are the normally allowed to float, but may be fixed at 100 or 0 respectively in a 3-parameter fit. The Hill Coefficient normally allowed to float but may also be fixed at 1 in a 3-parameter fit. Y is the % inhibition and X is the compound concentration.

Another assay deals with T2, PRMT3 (Homo sapiens, UniProt O60678).
T2 construct: made in house; host or cells: E. coli BL21(DE3) Gold
T2 sequence (O60678 with tags, fused parts or gaps): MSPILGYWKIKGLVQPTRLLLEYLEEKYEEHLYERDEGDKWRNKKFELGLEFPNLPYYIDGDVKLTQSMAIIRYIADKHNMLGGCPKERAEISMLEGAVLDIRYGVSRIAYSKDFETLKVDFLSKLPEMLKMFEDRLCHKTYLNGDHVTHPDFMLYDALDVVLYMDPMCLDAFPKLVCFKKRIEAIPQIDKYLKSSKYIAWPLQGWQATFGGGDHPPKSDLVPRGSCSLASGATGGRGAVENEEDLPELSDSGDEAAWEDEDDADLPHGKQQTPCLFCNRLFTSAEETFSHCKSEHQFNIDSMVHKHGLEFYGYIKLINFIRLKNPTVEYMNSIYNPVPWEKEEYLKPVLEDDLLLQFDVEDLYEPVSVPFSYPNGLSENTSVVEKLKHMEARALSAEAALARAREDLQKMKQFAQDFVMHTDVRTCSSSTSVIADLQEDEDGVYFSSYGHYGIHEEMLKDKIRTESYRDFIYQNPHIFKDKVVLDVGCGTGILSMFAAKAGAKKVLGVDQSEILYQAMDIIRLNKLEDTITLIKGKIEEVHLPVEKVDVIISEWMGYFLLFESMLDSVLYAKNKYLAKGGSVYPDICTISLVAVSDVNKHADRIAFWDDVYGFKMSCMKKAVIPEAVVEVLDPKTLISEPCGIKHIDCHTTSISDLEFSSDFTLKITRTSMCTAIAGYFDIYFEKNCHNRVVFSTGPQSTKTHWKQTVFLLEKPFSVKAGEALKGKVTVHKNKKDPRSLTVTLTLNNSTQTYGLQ
Put plainly: PRMT3 Biochemical Assay.
Description: Peptide containing the classic RMT substrate motif was synthesized with an N-terminal linker-affinity tag motif and a C-terminal amide cap by 21st Century Biochemicals. The peptide was purified by high-performance liquid chromatography (HPLC) to greater than 95% purity and confirmed by liquid chromatography mass spectrometry (LC-MS). The sequence was Biot-Ahx-[…]-amide (SEQ ID NO.:11).
Full-length human PRMT3 (NM_005788.3) isoform 1 transcript clone was amplified from an HEK 293 cDNA library and subcloned into pGEX-KG (GE Life Sciences). The resulting construct encodes an N-terminal GST tag and a thrombin cleavage sequence
GST-tagged PRMT3 was eluted with 50 mM Tris, 2 mM glutathione, pH 7.1 and 50 mM Tris, 20 mM glutathione, pH 7.1. Pooled fractions were dialysed in 20 mM Tris, 50 mM NaCl, 5% glycerol, 1 mM EDTA, 1 mM DTT, pH7.5 (Buffer B) and applied to a Q Sepharose Fast Flow column. GST-tagged PRMT3 was eluted by 500 mM NaCl in buffer B. Pooled fractions were dialyzed in 25 mM phosphate buffer, 100 mM NaCl, 5% glycerol, 2 mM DTT, pH 6.8 (Buffer C) and loaded on to a ceramic hydroxyapatite column. GST-tagged PRMT3 eluted with 25-400 mM phosphate in buffer C. Protein was concentrated and buffer was exchanged to 20 mM Tris, 150 mM NaCl, 5% glycerol, 5 mM β-mercaptoethanol, pH7.8 by ultrafiltration. The purity of recovered protein was 70%.
General Procedure for PRMT3 Enzyme Assays on Peptide Substrates.
The assays were all performed in a buffer consisting of 20 mM Bicine (pH=7.6), 1 mM TCEP, 0.005% BSG, and 0.002% Tween 20, prepared on the day of use. Compounds in 100% DMSO (1 ul) were spotted into a polypropylene 384-well V-bottom plates (Greiner) using a Platemate Plus outfitted with a 384-channel head (Thermo Scientific). DMSO (1 ul) was added to Columns 11, 12, 23, 24, rows A-H for the maximum signal control and 1 ul of SAH, a known product and inhibitor of PRMT3, was added to columns 11, 12, 23, 24, rows I-P for the minimum signal control. A cocktail (40 ul) containing the PRMT3 enzyme was added by Multidrop Combi (Thermo-Fisher). The compounds were allowed to incubate with PRMT3 for 30 min at room temperature, then a cocktail (10 ul) containing SAM and peptide was added to initiate the reaction (final volume=51 ul). The final concentrations of the components were as follows: PRMT3 was 0.5 nM, ^3H-SAM was 100 nM, non-radiolabeled SAM was 1.8 uM, peptide was 330 nM, SAH in the minimum signal control wells was 1 mM, and the DMSO concentration was 2%. The assays were stopped by the addition of potassium chloride (10 ul) to a final concentration of 100 mM. 50 ul of the reaction in the 384-well polypropylene plate was then transferred to a 384-well Flashplate and the biotinylated peptides were allowed to bind to the streptavidin surface for at least 1 hour before being washed once with 0.1% Tween20 in a Biotek ELx405 plate washer. The plates were then read in a PerkinElmer TopCount plate reader to measure the quantity of ^3H-labeled peptide bound to the Flashplate surface, measured as disintegrations per minute (dpm) or alternatively, referred to as counts per minute (cpm).
as §1, §2

[1] abbreviates: Table 2, biochemical evaluation, read-out: PRMT1 IC50 (class).
The mark [2] stands for this setting: Table 2a, numerical, single experiment or average of multiple experiments, read-out: PRMT1 IC50.
Setting [3] is: Table 2, biochemical evaluation, read-out: PRMT3 IC50 (class).
[4] abbreviates: Table 2a, numerical, single experiment or average of multiple experiments, read-out: PRMT3 IC50.

T1 sequence (Q99873 with tags, fused parts or gaps): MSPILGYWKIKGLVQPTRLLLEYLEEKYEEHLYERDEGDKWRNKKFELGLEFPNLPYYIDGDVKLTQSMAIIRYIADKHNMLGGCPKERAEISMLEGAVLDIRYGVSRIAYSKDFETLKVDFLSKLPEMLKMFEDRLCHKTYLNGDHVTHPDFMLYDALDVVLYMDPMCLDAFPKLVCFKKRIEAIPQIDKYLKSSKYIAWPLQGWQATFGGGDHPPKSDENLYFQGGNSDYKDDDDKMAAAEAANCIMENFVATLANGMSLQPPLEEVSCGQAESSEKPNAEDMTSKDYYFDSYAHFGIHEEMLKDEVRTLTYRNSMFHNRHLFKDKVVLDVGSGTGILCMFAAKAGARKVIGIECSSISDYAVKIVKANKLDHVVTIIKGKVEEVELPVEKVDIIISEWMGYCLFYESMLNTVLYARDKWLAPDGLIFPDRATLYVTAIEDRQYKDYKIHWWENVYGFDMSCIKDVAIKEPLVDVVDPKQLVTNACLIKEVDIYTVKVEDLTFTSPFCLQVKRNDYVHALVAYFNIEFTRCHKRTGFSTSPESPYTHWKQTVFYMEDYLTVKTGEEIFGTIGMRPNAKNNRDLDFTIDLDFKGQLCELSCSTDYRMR

Consider `CN(CCN)Cc1ncoc1-c1ccc(C#N)cc1` [Compound 1, 4-(4-(((2-aminoethyl)(methyl)amino)methyl)oxazol-5-yl)benzonitrile], for which the IC50 on PRMT1 (setting [1]) is 101 to 1000 nM; at PRMT1 (setting [2]), 314 nM; on PRMT3 (setting [3]) it was greater than 10000 nM; on PRMT3 (setting [4]) it was greater than 10000 nM.
As to `CN(CCN)Cc1ccnn1-c1ccc(C#N)cc1` [Compound 2, 4-(5-(((2-aminoethyl)(methyl)amino)methyl)-1H-pyrazol-1-yl)benzonitrile], the IC50 is 101 to 1000 nM at PRMT1 (setting [1]), 157 nM on PRMT1 (setting [2]), greater than 10000 nM on PRMT3 (setting [3]) and greater than 10000 nM on PRMT3 (setting [4]).
Turning to `CN(CCN)Cc1n[nH]nc1-c1ccc(C#N)cc1` [Compound 3, 4-(5-(((2-aminoethyl)(methyl)amino)methyl)-2H-1,2,3-triazol-4-yl)benzonitrile], the IC50 on PRMT1 (setting [1]) is less than 100 nM; on PRMT1 (setting [2]), 82 nM; at PRMT3 (setting [3]), greater than 10000 nM; on PRMT3 (setting [4]), greater than 10000 nM.
As to `CN(CCN)Cc1ocnc1-c1ccc(C#N)cc1` [Compound 4, 4-(5-(((2-aminoethyl)(methyl)amino)methyl)oxazol-4-yl)benzonitrile], the IC50 on PRMT1 (setting [1]) was 101 to 1000 nM; at PRMT1 (setting [2]) it was 270 nM.
The corresponding values for `CN(CCN)Cc1cnnn1-c1ccc(C#N)cc1` [Compound 5, 4-(5-(((2-aminoethyl)(methyl)amino)methyl)-1H-1,2,3-triazol-1-yl)benzonitrile] are greater than 10000 nM and greater than 10000 nM.
For `CN(CCN)Cc1cncn1-c1ccc(C#N)cc1` [Compound 6, 4-(5-(((2-aminoethyl)(methyl)amino)methyl)-1H-imidazol-1-yl)benzonitrile] the same measures were 1010 to 3000 nM and 1680 nM.
For `CN(CCN)Cc1nsnc1-c1ccc(C#N)cc1` [Compound 7, 4-(4-(((2-aminoethyl)(methyl)amino)methyl)-1,2,5-thiadiazol-3-yl)benzonitrile] the same measures were 101 to 1000 nM and 277 nM.
For the molecule `CC(C)Oc1ccc(-n2nccc2CN(C)CCN)cc1` [Compound 8, N^1-((1-(4-isopropoxyphenyl)-1H-pyrazol-5-yl)methyl)-N^1-methylethane-1,2-diamine], the IC50 at PRMT1 (setting [1]) is less than 100 nM; at PRMT1 (setting [2]), 13.9 nM.
In the case of `CN(CCN)Cc1ccnn1-c1ccc(Oc2ccccc2)cc1` [Compound 9], the IC50 on PRMT1 (setting [1]) was less than 100 nM; on PRMT1 (setting [2]), 15.4 nM.
With `CN(CCN)Cc1[nH]cnc1-c1ccc(C#N)cc1` [Compound 10, 4-(5-(((2-aminoethyl)(methyl)amino)methyl)-1H-imidazol-4-yl)benzonitrile], the 50% inhibitory concentration (IC50) on PRMT1 (setting [1]) is 101 to 1000 nM; at PRMT1 (setting [2]), 215 nM.
`CN(CCN)Cc1oncc1-c1ccc(F)cc1` [Compound 11, N^1-((4-(4-fluorophenyl)isoxazol-5-yl)methyl)-N^1-methylethane-1,2-diamine]: the figures for the half-inhibitory concentration (IC50) at PRMT1 (setting [1]) and on PRMT1 (setting [2]) were 1010 to 3000 nM and 2700 nM, respectively.

Usually IC50 stands for the midpoint of a concentration-inhibition curve.
